Experiments:
[1] = molecular target: Human immunodeficiency virus type 1 protease (Human immunodeficiency virus 1, UniProt Q72874); test: Inhibition of HIV-1 protease
[2] = tested on: Human immunodeficiency virus 1; test: Inhibitory concentration was evaluated to inhibit 95% of HIV-1 spread in MT4 cells

Row | Compound | IC50 [1] | IC95 [2]
1 | O=C(N[C@@H](Cc1ccccc1)[C@@H](O)C[C@@H](Cc1ccccc1)C(=O)N[C@H]1c2ccccc2C[C@H]1O)OC1CCCC1 | 0.33 nM | 400 nM
2 | O=C(N[C@@H](Cc1ccccc1)[C@@H](O)C[C@@H](Cc1ccccc1)C(=O)N[C@H]1c2ccccc2C[C@H]1O)O[C@@H]1CCCOC1 | < 0.03 nM | 25 nM
3 | O=C(N[C@@H](Cc1ccccc1)[C@@H](O)C[C@@H](Cc1ccccc1)C(=O)N[C@H]1c2ccccc2C[C@H]1O)OC1CCOCC1 | 1.22 nM | –
4 | O=C(N[C@@H](Cc1ccccc1)[C@@H](O)C[C@@H](Cc1ccccc1)C(=O)N[C@H]1c2ccccc2C[C@H]1O)O[C@H]1CCOC1 | < 0.03 nM | 3 nM
5 | CC(C)(C)NC(=O)[C@@H]1C[C@@H]2CCCC[C@@H]2CN1C[C@@H](O)[C@H](Cc1ccccc1)NC(=O)O[C@H]1CCCOC1 | 392 nM | –
6 | CC(C)(C)NC(=O)[C@@H]1C[C@@H]2CCCC[C@@H]2CN1C[C@@H](O)[C@H](Cc1ccccc1)NC(=O)OC(C)(C)C | > 3000 nM | –
7 | O=C(N[C@@H](Cc1ccccc1)[C@@H](O)C[C@@H](Cc1ccccc1)C(=O)N[C@H]1c2ccccc2C[C@H]1O)O[C@@H]1CCOC1 | 0.03 nM | 100 nM
8 | CC(C)(C)NC(=O)[C@@H]1C[C@@H]2CCCC[C@@H]2CN1C[C@@H](O)[C@H](Cc1ccccc1)NC(=O)O[C@H]1C=CCOC1 | 314 nM | –
9 | CC(C)(C)NC(=O)[C@@H]1C[C@@H]2CCCC[C@@H]2CN1C[C@@H](O)[C@H](Cc1ccccc1)NC(=O)O[C@@H]1C=CCOC1 | 48.9 nM | –
10 | CC(C)(C)OC(=O)N[C@@H](Cc1ccccc1)[C@@H](O)C[C@@H](Cc1ccccc1)C(=O)N[C@H]1c2ccccc2C[C@H]1O | – | 400 nM
11 | O=C(N[C@@H](Cc1ccccc1)[C@@H](O)C[C@@H](Cc1ccccc1)C(=O)N[C@H]1c2ccccc2C[C@H]1O)O[C@H]1CCCOC1 | < 0.03 nM | 50 nM
12 | CC(C)(C)NC(=O)[C@@H]1C[C@@H]2CCCC[C@@H]2CN1C[C@@H](O)[C@H](Cc1ccccc1)NC(=O)O[C@@H]1CCCOC1 | 308 nM | –

From ChEMBL document CHEMBL1127030, “3-Tetrahydrofuran and pyran urethanes as high-affinity P2-ligands for HIV-1 protease inhibitors” (J Med Chem, 1993)
